According to ChEMBL document CHEMBL4828703, “Structure-activity relationship study of THZ531 derivatives enables the discovery of BSJ-01-175 as a dual CDK12/13 covalent inhibitor with efficacy in Ewing sarcoma” (Eur J Med Chem, 2021):
Calls of active or inactive are those of the source. The calls are words filed in the database; no cut-off is given here.

Experiments:
[1] = Antiproliferative activity against human TC71 cells assessed as reduction in cell viability; type: functional, cell-based; conditions: TC-71
[2] = molecular target: Cyclin-dependent kinase 7/ cyclin H (Homo sapiens, UniProt P50613); assay: Inhibition of CDK7/Cyclin H (unknown origin); type: protein-complex assay
[3] = molecular target: CDK12/Cyclin K (Homo sapiens, UniProt Q9NYV4); assay: Inhibition of human recombinant CDK12/CyclinK assessed as reduction in substrate phosphorylation using His-c-Myc as substrate preincubated with enzyme for 5 mins followed by substrate addition for 15 mins in presence of [gamma 32P-ATP] by radioactive kinase assay; type: protein-complex assay
[4] = Metabolic stability in mouse liver microsomes assessed as half life; type: ADME, Microsome
[5] = molecular target: T1, Cyclin-dependent kinase 12/13 (Homo sapiens) (UniProt Q14004+Q9NYV4); assay: Inhibition of CDK12/13 in human Jurkat cells assessed as BRCA1 gene expression at 0.5 to 1 uM incubated for 4 hrs by RT-qPCR analysis; type: cell-based; set-up: scale not given: the % may be the effect or the level left; conditions: dose 0.5-1 µM
[6] = molecular target: T1, Cyclin-dependent kinase 12/13 (Homo sapiens); assay: Inhibition of CDK12/13 in human Jurkat cells assessed as BRCA2 gene expression at 0.5 to 1 uM incubated for 4 hrs by RT-qPCR analysis; type: cell-based; set-up: scale not given: the % may be the effect or the level left; conditions: dose 0.5-1 µM
[7] = Antiproliferative activity against human Kelly cells harboring CDK12 C1039F mutant assessed as reduction in cell viability incubated for 72 hrs by CellTiter-Glo assay; type: functional, cell-based
[8] = Tmax in Swiss albino mouse at 10 mg/kg, po measured upto 24 hrs by LC-MS/MS analysis; type: ADME, organism-based; conditions: in vivo
[9] = Half life in Swiss albino mouse at 3 mg/kg, iv measured upto 24 hrs by LC-MS/MS analysis; type: ADME, organism-based; conditions: in vivo
[10] = Volume of distribution at steady state in Swiss albino mouse at 3 mg/kg, iv measured upto 24 hrs by LC-MS/MS analysis; type: ADME, organism-based; conditions: in vivo
[11] = test system: TC-71; assay: Antitumor activity against human TC71 cells xenografted in nude mouse assessed as suppression of tumor growth at 10 mg/kg, ip for 21 days by caliper analysis; type: functional, organism-based; conditions: time 21.0 day
[12] = Toxicity in nude mouse xenografted with human TC71 cells assessed as body weight loss at 10 mg/kg, ip for 21 days; type: organism-based; conditions: in vivo, 504 h, time 21 day
[13] = molecular target: Cyclin-dependent kinase 12 (Homo sapiens) (UniProt Q9NYV4); assay: Inhibition of ADP(ATP)-biotin probe binding to CDK12 in human Kelly cells at 1 uM incubated for 6 hrs by KiNativ profiling analysis; type: cell-based
[14] = molecular target: Ribosomal protein S6 kinase alpha-3 (Homo sapiens, UniProt P51812); assay: Inhibition of ADP(ATP)-biotin probe binding to RSK2 domain 1 in human Kelly cells at 1 uM incubated for 6 hrs by KiNativ profiling analysis; type: cell-based
[15] = molecular target: Cyclin-dependent kinase 7 (Homo sapiens) (UniProt P50613); assay: Inhibition of ADP(ATP)-biotin probe binding to CDK7 in human Kelly cells at 1 uM incubated for 6 hrs by KiNativ profiling analysis; type: cell-based
[16] = molecular target: Ribosomal protein S6 kinase alpha-1 (Homo sapiens) (UniProt Q15418); assay: Inhibition of ADP(ATP)-biotin probe binding to RSK1 domain 1 in human Kelly cells at 1 uM incubated for 6 hrs by KiNativ profiling analysis; type: cell-based
[17] = molecular target: Ribosomal protein S6 kinase alpha-2 (Homo sapiens) (UniProt Q15349); assay: Inhibition of ADP(ATP)-biotin probe binding to RSK3 domain 1 in human Kelly cells at 1 uM incubated for 6 hrs by KiNativ profiling analysis; type: cell-based
[18] = molecular target: Mitogen-activated protein kinase 9 (Homo sapiens) (UniProt P45984); assay: Inhibition of ADP(ATP)-biotin probe binding to JNK2 in human Kelly cells at 1 uM incubated for 6 hrs by KiNativ profiling analysis; type: cell-based
[19] = molecular target: STE20-related kinase adapter protein beta (Homo sapiens) (UniProt Q9C0K7); assay: Inhibition of ADP(ATP)-biotin probe binding to STLK6 in human Kelly cells at 1 uM incubated for 6 hrs by KiNativ profiling analysis; type: cell-based
[20] = molecular target: Serine/threonine-protein kinase 16 (Homo sapiens) (UniProt O75716); assay: Inhibition of ADP(ATP)-biotin probe binding to MPSK1 in human Kelly cells at 1 uM incubated for 6 hrs by KiNativ profiling analysis; type: cell-based
[21] = molecular target: Ribosomal protein S6 kinase alpha-4 (Homo sapiens) (UniProt O75676); assay: Inhibition of ADP(ATP)-biotin probe binding to MSK2 domain 1 in human Kelly cells at 1 uM incubated for 6 hrs by KiNativ profiling analysis; type: cell-based
[22] = molecular target: Calcium/calmodulin-dependent protein kinase type IV (Homo sapiens) (UniProt Q16566); assay: Inhibition of ADP(ATP)-biotin probe binding to CaMK4 in human Kelly cells at 1 uM incubated for 6 hrs by KiNativ profiling analysis; type: cell-based
[23] = molecular target: RAF proto-oncogene serine/threonine-protein kinase (Homo sapiens) (UniProt P04049); assay: Inhibition of ADP(ATP)-biotin probe binding to RAF1 in human Kelly cells at 1 uM incubated for 6 hrs by KiNativ profiling analysis; type: cell-based
[24] = molecular target: T1, Cyclin-dependent kinase 12/13 (Homo sapiens); assay: Inhibition of THZ1-biotin binding from CDK12/13 in human Jurkat cells at 500 nM incubated for 6 hrs by CyclinK antibody based competitive pull down assay; type: cell-based
[25] = molecular target: T1, Cyclin-dependent kinase 12/13 (Homo sapiens); assay: Inhibition of THZ1-biotin binding from CDK12/13 in human Jurkat cells incubated for 3 hrs followed by drug wash-out for 24 hrs by competitive pull down assay; type: cell-based
[26] = molecular target: T1, Cyclin-dependent kinase 12/13 (Homo sapiens); assay: Inhibition of CDK12/13 in human jurkat cells assessed as reduction in RNA polymerase 2 CTD phosphorylation at Ser2 residue at 2.5 uM measured after 6 hrs by immunoblotting analysis; type: cell-based
[27] = molecular target: T1, Cyclin-dependent kinase 12/13 (Homo sapiens); assay: Inhibition of CDK12/13 in human jurkat cells assessed as reduction in RNA polymerase 2 CTD phosphorylation at Ser2 residue at 5 uM measured after 6 hrs by immunoblotting analysis; type: cell-based
[28] = Downregulation of RNA polymerase 2 CTD phosphorylation at Ser5 residue in human Jurkat cells at 0.5 uM incubated for 6 hrs by immunoblotting analysis; type: functional
[29] = Downregulation of RNA polymerase 2 CTD phosphorylation at Ser5 residue in human Jurkat cells at 1 uM incubated for 6 hrs by immunoblotting analysis; type: functional
[30] = Downregulation of RNA polymerase 2 CTD phosphorylation at Ser7 residue in human Jurkat cells at 0.5 uM incubated for 6 hrs by immunoblotting analysis; type: functional
[31] = Downregulation of RNA polymerase 2 CTD phosphorylation at Ser7 residue in human Jurkat cells at 2.5 uM incubated for 6 hrs by immunoblotting analysis; type: functional
[32] = Downregulation of RNA polymerase 2 CTD phosphorylation at Ser7 residue in human Jurkat cells at 5 uM incubated for 6 hrs by immunoblotting analysis; type: functional
[33] = Downregulation of RNA polymerase 2 in human Jurkat cells at 0.5 uM measured after 6 hrs by immunoblotting analysis; type: functional
[34] = Downregulation of RNA polymerase 2 in human Jurkat cells at 2.5 uM measured after 6 hrs by immunoblotting analysis; type: functional
[35] = Downregulation of RNA polymerase 2 in human Jurkat cells at 5 uM measured after 6 hrs by immunoblotting analysis; type: functional
[36] = molecular target: DNA-dependent protein kinase catalytic subunit (Homo sapiens, UniProt P78527); assay: Inhibition of human DNAPK by Invitrogen ADAPTA or Z'LYTE biochemical kinase assay

Sequence of Calcium/calmodulin-dependent protein kinase type IV (Homo sapiens) (Q16566 whole entry): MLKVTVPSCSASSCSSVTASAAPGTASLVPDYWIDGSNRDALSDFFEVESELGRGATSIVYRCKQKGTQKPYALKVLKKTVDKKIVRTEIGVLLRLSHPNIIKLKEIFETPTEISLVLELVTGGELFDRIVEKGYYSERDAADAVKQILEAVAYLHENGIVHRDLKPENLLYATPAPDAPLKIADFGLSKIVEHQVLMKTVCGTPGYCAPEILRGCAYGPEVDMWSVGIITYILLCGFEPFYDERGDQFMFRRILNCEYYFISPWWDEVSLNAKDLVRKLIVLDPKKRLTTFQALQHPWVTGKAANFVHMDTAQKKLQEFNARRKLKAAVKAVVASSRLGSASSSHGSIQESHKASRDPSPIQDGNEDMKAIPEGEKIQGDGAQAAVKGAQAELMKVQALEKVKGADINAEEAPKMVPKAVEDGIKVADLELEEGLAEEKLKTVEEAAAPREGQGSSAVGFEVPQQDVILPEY
Sequence of Mitogen-activated protein kinase 9 (Homo sapiens) (P45984 whole entry, looked up): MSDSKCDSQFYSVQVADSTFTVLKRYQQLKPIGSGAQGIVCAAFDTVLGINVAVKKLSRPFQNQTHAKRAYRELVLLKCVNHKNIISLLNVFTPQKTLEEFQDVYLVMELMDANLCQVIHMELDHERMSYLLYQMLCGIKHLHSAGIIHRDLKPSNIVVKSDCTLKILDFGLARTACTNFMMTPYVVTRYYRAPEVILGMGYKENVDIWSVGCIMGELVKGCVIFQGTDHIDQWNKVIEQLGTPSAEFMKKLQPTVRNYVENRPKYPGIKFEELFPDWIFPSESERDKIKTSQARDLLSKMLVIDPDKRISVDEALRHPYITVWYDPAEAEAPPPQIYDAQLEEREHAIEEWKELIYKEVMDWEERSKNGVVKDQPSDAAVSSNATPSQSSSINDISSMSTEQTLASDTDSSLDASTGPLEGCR
Sequence of Ribosomal protein S6 kinase alpha-4 (Homo sapiens) (O75676 whole entry, looked up, the tested form may be a part): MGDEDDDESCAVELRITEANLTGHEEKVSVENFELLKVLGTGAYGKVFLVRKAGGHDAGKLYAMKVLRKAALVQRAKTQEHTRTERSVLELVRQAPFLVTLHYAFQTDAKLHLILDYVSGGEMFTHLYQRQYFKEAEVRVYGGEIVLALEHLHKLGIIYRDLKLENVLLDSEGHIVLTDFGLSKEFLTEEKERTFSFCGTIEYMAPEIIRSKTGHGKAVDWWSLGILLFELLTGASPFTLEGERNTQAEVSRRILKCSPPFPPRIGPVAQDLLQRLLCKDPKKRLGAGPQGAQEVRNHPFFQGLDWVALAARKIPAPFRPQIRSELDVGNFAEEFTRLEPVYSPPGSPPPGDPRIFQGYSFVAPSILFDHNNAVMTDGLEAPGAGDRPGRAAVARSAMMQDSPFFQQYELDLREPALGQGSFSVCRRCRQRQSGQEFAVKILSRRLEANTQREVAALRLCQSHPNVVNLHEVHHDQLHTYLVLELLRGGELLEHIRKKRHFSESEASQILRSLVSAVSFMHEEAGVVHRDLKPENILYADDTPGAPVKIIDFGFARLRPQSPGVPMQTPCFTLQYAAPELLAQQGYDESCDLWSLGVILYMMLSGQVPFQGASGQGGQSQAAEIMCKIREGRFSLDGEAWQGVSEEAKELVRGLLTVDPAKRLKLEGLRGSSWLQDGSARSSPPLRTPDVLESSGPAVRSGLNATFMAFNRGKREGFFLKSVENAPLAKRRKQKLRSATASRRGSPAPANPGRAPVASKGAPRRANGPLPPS
Sequence of Cyclin-dependent kinase 7 (Homo sapiens) (P50613 whole entry, the tested form may be a part): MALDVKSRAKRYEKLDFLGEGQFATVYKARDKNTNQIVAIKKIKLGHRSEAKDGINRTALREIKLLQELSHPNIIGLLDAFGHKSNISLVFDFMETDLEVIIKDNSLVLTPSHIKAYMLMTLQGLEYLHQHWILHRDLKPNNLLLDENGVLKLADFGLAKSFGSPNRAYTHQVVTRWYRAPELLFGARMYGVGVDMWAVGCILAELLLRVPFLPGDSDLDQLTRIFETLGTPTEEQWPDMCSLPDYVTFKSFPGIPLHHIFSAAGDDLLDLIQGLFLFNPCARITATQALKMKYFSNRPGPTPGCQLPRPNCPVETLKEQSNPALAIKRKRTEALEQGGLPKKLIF
Sequence of Ribosomal protein S6 kinase alpha-2 (Homo sapiens) (Q15349 whole entry, the tested form may be a part): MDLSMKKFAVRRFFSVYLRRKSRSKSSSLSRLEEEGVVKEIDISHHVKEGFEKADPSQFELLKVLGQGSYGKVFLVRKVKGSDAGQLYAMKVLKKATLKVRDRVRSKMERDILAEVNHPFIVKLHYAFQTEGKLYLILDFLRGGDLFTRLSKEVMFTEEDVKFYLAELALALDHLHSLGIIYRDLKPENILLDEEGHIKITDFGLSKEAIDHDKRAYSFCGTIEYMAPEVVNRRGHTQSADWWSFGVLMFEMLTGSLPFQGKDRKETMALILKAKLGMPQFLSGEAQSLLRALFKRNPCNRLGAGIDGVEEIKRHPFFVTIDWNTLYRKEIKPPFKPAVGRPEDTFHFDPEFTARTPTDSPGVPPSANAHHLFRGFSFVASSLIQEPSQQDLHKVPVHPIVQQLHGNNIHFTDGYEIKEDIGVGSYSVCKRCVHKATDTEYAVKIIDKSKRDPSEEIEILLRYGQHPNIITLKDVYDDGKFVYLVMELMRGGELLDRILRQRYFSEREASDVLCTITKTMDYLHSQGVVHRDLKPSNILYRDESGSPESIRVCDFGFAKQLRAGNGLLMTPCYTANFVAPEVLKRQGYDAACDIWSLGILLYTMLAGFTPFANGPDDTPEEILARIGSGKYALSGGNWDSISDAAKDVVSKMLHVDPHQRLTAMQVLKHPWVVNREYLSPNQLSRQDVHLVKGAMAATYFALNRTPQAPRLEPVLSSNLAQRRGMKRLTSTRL
Sequence of Ribosomal protein S6 kinase alpha-3 (P51812 whole entry, the tested form may be a part): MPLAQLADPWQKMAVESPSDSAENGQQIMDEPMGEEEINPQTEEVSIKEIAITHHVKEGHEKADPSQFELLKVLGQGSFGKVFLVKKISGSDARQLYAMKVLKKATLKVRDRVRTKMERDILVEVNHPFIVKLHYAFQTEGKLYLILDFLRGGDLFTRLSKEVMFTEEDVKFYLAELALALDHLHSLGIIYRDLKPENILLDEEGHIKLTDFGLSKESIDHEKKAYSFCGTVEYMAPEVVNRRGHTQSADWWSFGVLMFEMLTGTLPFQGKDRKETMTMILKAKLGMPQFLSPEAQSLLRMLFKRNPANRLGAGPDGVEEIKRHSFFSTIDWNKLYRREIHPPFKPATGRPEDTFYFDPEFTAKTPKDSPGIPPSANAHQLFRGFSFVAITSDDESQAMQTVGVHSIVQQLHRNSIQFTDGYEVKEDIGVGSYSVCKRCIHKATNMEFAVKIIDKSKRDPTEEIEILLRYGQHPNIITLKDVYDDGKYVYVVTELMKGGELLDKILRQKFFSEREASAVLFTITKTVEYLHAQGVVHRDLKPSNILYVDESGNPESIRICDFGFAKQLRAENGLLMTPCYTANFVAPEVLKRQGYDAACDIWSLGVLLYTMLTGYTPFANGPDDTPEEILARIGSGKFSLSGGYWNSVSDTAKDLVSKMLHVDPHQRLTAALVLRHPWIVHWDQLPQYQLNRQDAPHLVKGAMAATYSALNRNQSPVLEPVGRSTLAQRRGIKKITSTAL
Sequence of STE20-related kinase adapter protein beta (Homo sapiens) (Q9C0K7 whole entry): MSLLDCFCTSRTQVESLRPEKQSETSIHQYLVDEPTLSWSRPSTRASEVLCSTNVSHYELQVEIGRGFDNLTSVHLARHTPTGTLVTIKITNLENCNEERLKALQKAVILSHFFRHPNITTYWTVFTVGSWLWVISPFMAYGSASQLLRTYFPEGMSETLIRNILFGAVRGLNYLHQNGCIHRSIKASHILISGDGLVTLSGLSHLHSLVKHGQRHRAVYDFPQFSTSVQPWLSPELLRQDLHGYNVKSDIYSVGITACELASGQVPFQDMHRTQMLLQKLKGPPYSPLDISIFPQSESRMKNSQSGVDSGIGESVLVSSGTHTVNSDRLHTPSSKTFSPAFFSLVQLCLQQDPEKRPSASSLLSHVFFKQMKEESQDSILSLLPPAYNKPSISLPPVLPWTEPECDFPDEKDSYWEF
Sequence of Serine/threonine-protein kinase 16 (Homo sapiens) (O75716 whole entry, the tested form may be a part): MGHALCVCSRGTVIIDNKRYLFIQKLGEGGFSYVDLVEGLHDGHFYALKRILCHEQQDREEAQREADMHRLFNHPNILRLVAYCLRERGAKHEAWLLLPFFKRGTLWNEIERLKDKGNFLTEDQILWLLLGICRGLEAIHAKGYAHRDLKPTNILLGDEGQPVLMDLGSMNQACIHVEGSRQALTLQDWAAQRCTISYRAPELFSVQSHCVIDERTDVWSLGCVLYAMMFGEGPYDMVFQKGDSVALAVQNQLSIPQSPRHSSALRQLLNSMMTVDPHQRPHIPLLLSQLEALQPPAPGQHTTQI
Sequence of Ribosomal protein S6 kinase alpha-1 (Homo sapiens) (Q15418 whole entry, the tested form may be a part): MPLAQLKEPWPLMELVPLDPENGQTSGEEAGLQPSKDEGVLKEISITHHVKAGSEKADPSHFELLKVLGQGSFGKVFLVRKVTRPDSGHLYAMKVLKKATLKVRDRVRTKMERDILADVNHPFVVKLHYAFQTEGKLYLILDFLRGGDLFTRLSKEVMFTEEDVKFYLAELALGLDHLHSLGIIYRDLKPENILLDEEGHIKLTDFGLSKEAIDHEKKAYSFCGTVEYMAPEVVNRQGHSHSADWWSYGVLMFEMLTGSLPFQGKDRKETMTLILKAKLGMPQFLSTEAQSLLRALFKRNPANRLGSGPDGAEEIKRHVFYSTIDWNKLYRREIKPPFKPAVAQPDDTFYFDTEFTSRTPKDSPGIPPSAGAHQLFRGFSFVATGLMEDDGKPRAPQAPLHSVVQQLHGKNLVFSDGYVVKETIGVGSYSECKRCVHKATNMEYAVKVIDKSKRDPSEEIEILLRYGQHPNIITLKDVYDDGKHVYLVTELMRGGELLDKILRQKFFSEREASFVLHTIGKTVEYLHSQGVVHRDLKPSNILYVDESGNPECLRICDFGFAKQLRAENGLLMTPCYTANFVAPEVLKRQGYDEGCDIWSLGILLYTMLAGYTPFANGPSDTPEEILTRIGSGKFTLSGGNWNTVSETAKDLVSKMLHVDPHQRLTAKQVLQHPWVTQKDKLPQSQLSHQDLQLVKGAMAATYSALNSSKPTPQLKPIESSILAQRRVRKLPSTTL

## CN(C)C/C=C/C(=O)Nc1ccc(O[C@@H]2CCC[C@@H](Nc3ncc(Cl)c(-c4c[nH]c5ccccc45)n3)C2)cc1
[1]
  IC50: 160 nM
[2]
  IC50: 187 nM
[3]
  IC50: 156 nM
[4]
  t1/2: 8 min
[5]
  Activity: 30%
[6]
  Activity: 30%
[7]
  IC50: 225 nM
[8]
  Tmax: 2 h
[9]
  t1/2: 2.2 h
[10]
  Vdss: 3.9 L/kg
[11]
  Activity: Active
[12]
  Activity: Toxic
[13]
  inhibition: 76.8%
[14]
  inhibition: 46%
[15]
  inhibition: 39.2%
[16]
  inhibition: 35.4%
[17]
  inhibition: 41.6%
[18]
  inhibition: 45.9%
[19]
  inhibition: 44.5%
[20]
  inhibition: 42.4%
[21]
  inhibition: 40.3%
[22]
  inhibition: 38.2%
[23]
  inhibition: 37.8%
[24]
  inhibition: Active
[25]
  inhibition: Active
[26]
  inhibition: 87%
[27]
  inhibition: 89%
[28]
  inhibition at 0.5 µM: 0%
[29]
  inhibition at 1 µM: 32%
[30]
  inhibition at 0.5 µM: 0%
[31]
  inhibition at 2.5 µM: 58%
[32]
  inhibition at 5 µM: 74%
[33]
  inhibition at 0.5 µM: 0%
[34]
  inhibition at 2.5 µM: 15%
[35]
  inhibition at 5 µM: 38%
[36]
  IC50: > 10000 nM
